From patent US8445505B2 (IRM LLC, priority 2008, dated 2013) come the findings set out here.

For this experiment, the target named is IGF1R Ba/F3 (Homo sapiens, UniProt P08069). The experiment in a line: Ba/F3 Cell Viability Inhibition Assay (Tel-TK transformed Ba/F3 lines). In kind it is cell-based, murine. The note with it: Tel-TK (IGF1R) transformed Ba/F3 cells, 48 hours incubation, cell viability (Britelite luminescence). On the set-up: the printed alternative. The text has this: Ba/F3 is a murine IL-3-dependent pro-B lymphoma cell line. Parental Ba/F3 cells are used to generate a panel of sublines whose proliferation and survival is rendered IL-3-independent by stable transduction with individual tyrosine kinases activated by fusion with the amino-terminal portion of TEL (amino acid 1-375) or BCR. In order to generate Ba/F3 cell lines transformed by Tel-Tyrosine Kinase (TK) fusions, parental Ba/F3 cells are infected with a retrovirus harboring each TEL-fusion kinase and subjected to puromycin selection and IL-3 withdrawal to obtain IL-3-independent, transformed Ba/F3 cells.
Each transformed Ba/F3 cells are cultured in RPMI-1640 media (Gibco Cat #11875093, Carlsbad, Calif.) supplemented with 10% FBS (Hyclone Cat #SV30014.03, Logan, Utah), 4.5 g/L glucose (Sigma #G5400, St.Louis, Mo.), 1.5 g/L sodium bicarbonate (Biowhittaker #17-613E, Walkersville, Md.) and Pen/Strep (Gibco #10378-016, Carlsbad, Calif.). Cells are splitted twice weekly.
The potency of test compounds against various Tel-TK transformed Ba/F3 lines is determined as follows. Exponentially growing BaF3 Tel-TK cells are diluted in fresh medium to 75,000 cells/mL and seeded into 384-well plates (3750 cells/well) at 50 μL/well using a gill liquid dispenser (BioTek, Winooski, Vt., USA). Duplicate plates are run for each cell line. Test and control compounds are serially diluted with DMSO and arrayed in a polypropylene 384-well plate. 50 nL of compound is transferred into the assay plates using a pin-transfer device, and the plates are incubated at 37° C. (5% CO2) for 48 hours. 25 μL Britelite (Perkin Elmer) is added and luminescence is quantified using Analyst GT (Molecular Devices). Custom curve-fitting software is used to produce a logistic fit of percent cell viability as a function of the logarithm of inhibitor concentration. The IC50 is interpolated as the concentration of compound needed to reduce cell viability to 50% of a DMSO control. Parental Ba/F3 cells that are maintained and cultured in presence of IL-3 (1 ng/ml in final) are diluted in fresh medium containing IL-3 (1 ng/ml in final) to 75,000 cells/mL following the same procedure as described above.

As usually defined, the IC50 is the concentration that inhibits the measured activity by half.

IGF1R Ba/F3, sequence (P08069 999-1274 limits assumed): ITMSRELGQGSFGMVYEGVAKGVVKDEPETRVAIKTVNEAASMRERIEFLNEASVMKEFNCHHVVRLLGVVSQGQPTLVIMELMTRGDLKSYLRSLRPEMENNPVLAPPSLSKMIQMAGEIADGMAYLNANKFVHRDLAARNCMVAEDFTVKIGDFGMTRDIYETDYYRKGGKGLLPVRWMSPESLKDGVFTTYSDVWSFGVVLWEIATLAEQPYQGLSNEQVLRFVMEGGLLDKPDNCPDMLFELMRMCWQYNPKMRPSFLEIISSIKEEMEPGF

Consider `Cc1cc(Nc2nc(Nc3cc(C)c(-c4cnn(C)c4)cc3F)ncc2Cl)n[nH]1` [Compound 1, 5-chloro-N2-(2-fluoro-5-methyl-4-(1-methyl-1H-pyrazol-4-yl)phenyl)-N4-(5-methyl-1H-pyrazol-3-yl)pyrimidine-2,4-diamine], for which the IC50 worked out at 67 nM.
In the case of `Cc1cc(Nc2nc(Nc3cc(C)c(-c4ccncc4)cc3F)ncc2Cl)n[nH]1` [Compound 2, 5-chloro-N2-(2-fluoro-5-methyl-4-(pyridin-4-yl)phenyl)-N4-(5-methyl-1H-pyrazol-3-yl)pyrimidine-2,4-diamine] it was 103 nM.
`Cc1cc(Nc2nc(Nc3cc(C)c(-c4cccnc4)cc3F)ncc2Cl)n[nH]1` [Compound 3, 5-chloro-N2-(2-fluoro-5-methyl-4-(pyridin-3-yl)phenyl)-N4-(5-methyl-1H-pyrazol-3-yl)pyrimidine-2,4-diamine] displayed an IC50 of 67 nM.
`CNC(=O)c1ccc(-c2cc(F)c(Nc3ncc(Cl)c(Nc4cc(C)[nH]n4)n3)cc2C)cn1` [Compound 4, 5-(4-(5-chloro-4-(5-methyl-1H-pyrazol-3-ylamino)pyrimidin-2-ylamino)-5-fluoro-2-methylphenyl)-N-methylpicolinamide] registered an IC50 of 89 nM.
`Cc1ccc(-c2cc(F)c(Nc3ncc(Cl)c(Nc4cc(C)[nH]n4)n3)cc2C)cn1` [Compound 5, 5-chloro-N2-(2-fluoro-5-methyl-4-(6-methylpyridin-3-yl)phenyl)-N4-(5-methyl-1H-pyrazol-3-yl)pyrimidine-2,4-diamine] showed an IC50 of 137 nM.
To `Cc1cc(Nc2nc(Nc3cc(C)c(-c4ccccn4)cc3F)ncc2Cl)n[nH]1` [Compound 6, 5-chloro-N2-(2-fluoro-5-methyl-4-(pyridin-2-yl)phenyl)-N4-(5-methyl-1H-pyrazol-3-yl)pyrimidine-2,4-diamine] belongs 294 nM.
Compound `Cc1cc(Nc2nc(Nc3cc(C)c(-c4cnc5ccccc5c4)cc3F)ncc2Cl)n[nH]1` [Compound 7, 5-chloro-N2-(2-fluoro-5-methyl-4-(quinolin-3-yl)phenyl)-N4-(5-methyl-1H-pyrazol-3-yl)pyrimidine-2,4-diamine] came in with an IC50 of 579 nM. This IC50 lies about 2-fold higher than the previous one.
In the case of `Cc1cc(Nc2nc(Nc3cc(C)c(-c4ccc(O)nc4)cc3F)ncc2Cl)n[nH]1` [Compound 8, 5-(4-(5-chloro-4-(5-methyl-1H-pyrazol-3-ylamino)pyrimidin-2-ylamino)-5-fluoro-2-methylphenyl)pyridin-2-ol] it was 55 nM; in that of `Cc1cc(-c2cc(F)c(Nc3ncc(Cl)c(Nc4cc(C)[nH]n4)n3)cc2C)ccn1` [Compound 9, 5-chloro-N2-(2-fluoro-5-methyl-4-(2-methylpyridin-4-yl)phenyl)-N4-(5-methyl-1H-pyrazol-3-yl)pyrimidine-2,4-diamine], 94 nM; in that of `Cc1cc(Nc2nc(Nc3cc(C)c(-c4ccsc4)cc3F)ncc2Cl)n[nH]1` [Compound 10, 5-chloro-N2-(2-fluoro-5-methyl-4-(thiophen-3-yl)phenyl)-N4-(5-methyl-1H-pyrazol-3-yl)pyrimidine-2,4-diamine], 833 nM.
In the case of `Cc1cc(Nc2nc(Nc3cc(C)c(-c4ccoc4)cc3F)ncc2Cl)n[nH]1` [Compound 11, 5-chloro-N2-(2-fluoro-4-(furan-3-yl)-5-methylphenyl)-N4-(5-methyl-1H-pyrazol-3-yl)pyrimidine-2,4-diamine] it was 683 nM.
To `Cc1cc(Nc2nc(Nc3cc(C)c(-c4cnn(C)c4)cc3C)ncc2Cl)n[nH]1` [Compound 12, 5-chloro-N2-(2,5-dimethyl-4-(1-methyl-1H-pyrazol-4-yl)phenyl)-N4-(5-methyl-1H-pyrazol-3-yl)pyrimidine-2,4-diamine] belongs 25 nM; to `CNC(=O)c1ccc(-c2cc(C)c(Nc3ncc(Cl)c(Nc4cc(C)[nH]n4)n3)cc2C)cn1` [Compound 14, 5-(4-(5-chloro-4-(5-methyl-1H-pyrazol-3-ylamino)pyrimidin-2-ylamino)-2,5-dimethylphenyl)-N-methylpicolinamide], 15 nM.
Consider `Cc1cc(-c2cc(C)c(Nc3ncc(Cl)c(Nc4cc(C)[nH]n4)n3)cc2C)ccn1` [Compound 15, 5-chloro-N2-(2,5-dimethyl-4-(2-methylpyridin-4-yl)phenyl)-N4-(5-methyl-1H-pyrazol-3-yl)pyrimidine-2,4-diamine], for which the IC50 stood at 39 nM.
In the case of `Cc1ccc(-c2cc(C)c(Nc3ncc(Cl)c(Nc4cc(C)[nH]n4)n3)cc2C)cn1` [Compound 16, 5-chloro-N2-(2,5-dimethyl-4-(6-methylpyridin-3-yl)phenyl)-N4-(5-methyl-1H-pyrazol-3-yl)pyrimidine-2,4-diamine] it was 30 nM; in that of `Cc1cc(Nc2nc(Nc3cc(C)c(-c4ncc[nH]4)cc3C)ncc2Cl)n[nH]1` [Compound 17, N2-(4-(1H-imidazol-2-yl)-2,5-dimethylphenyl)-5-chloro-N4-(5-methyl-1H-pyrazol-3-yl)pyrimidine-2,4-diamine], 68 nM.
To `Cc1cc(-c2cc(C)c(Nc3ncc(Cl)c(Nc4cc(C)[nH]n4)n3)cc2C)on1` [Compound 18, 5-chloro-N2-(2,5-dimethyl-4-(3-methylisoxazol-5-yl)phenyl)-N4-(5-methyl-1H-pyrazol-3-yl)pyrimidine-2,4-diamine] belongs 276 nM; to `Cc1cc(Nc2nc(Nc3cc(C)c(-c4ncc[nH]4)cc3F)ncc2Cl)n[nH]1` [Compound 19, 5-chloro-N2-(2-fluoro-4-(1H-imidazol-2-yl)-5-methylphenyl)-N4-(5-methyl-1H-pyrazol-3-yl)pyrimidine-2,4-diamine], 288 nM; to `Cc1cc(Nc2nc(Nc3cc(C)c(-c4cnco4)cc3C)ncc2Cl)n[nH]1` [Compound 20, 5-chloro-N2-(2,5-dimethyl-4-(oxazol-5-yl)phenyl)-N4-(5-methyl-1H-pyrazol-3-yl)pyrimidine-2,4-diamine], 109 nM.
To `COc1cc(-c2cnco2)c(C)cc1Nc1ncc(Cl)c(Nc2cc(C)[nH]n2)n1` [Compound 21, 5-chloro-N2-(2-methoxy-5-methyl-4-(oxazol-5-yl)phenyl)-N4-(5-methyl-1H-pyrazol-3-yl)pyrimidine-2,4-diamine] belongs 169 nM.
Take `Cc1cc(-c2cc(C)c(Nc3ncc(Cl)c(Nc4cc(C)[nH]n4)n3)cc2C)[nH]n1` [Compound 22, 5-chloro-N2-(2,5-dimethyl-4-(3-methyl-1H-pyrazol-5-yl)phenyl)-N4-(5-methyl-1H-pyrazol-3-yl)pyrimidine-2,4-diamine]: half-maximal inhibition (IC50) was put at 166 nM.
To `Cc1cc(Nc2nc(Nc3cc(C)c(-c4csc(C)n4)cc3C)ncc2Cl)n[nH]1` [Compound 24, 5-chloro-N2-(2,5-dimethyl-4-(2-methylthiazol-4-yl)phenyl)-N4-(5-methyl-1H-pyrazol-3-yl)pyrimidine-2,4-diamine] belongs 106 nM.
For the compound `Cc1cc(Nc2nc(Nc3cc(C)c(-c4nccn4C)cc3C)ncc2Cl)n[nH]1` [Compound 25, 5-chloro-N2-(2,5-dimethyl-4-(1-methyl-1H-imidazol-2-yl)phenyl)-N4-(5-methyl-1H-pyrazol-3-yl)pyrimidine-2,4-diamine], the IC50 came to 71 nM.
In the case of `Cc1cc(Nc2nc(Nc3cc(F)c(-c4cnn(C)c4)cc3C)ncc2Cl)n[nH]1` [Compound 27, 5-chloro-N2-(5-fluoro-2-methyl-4-(1-methyl-1H-pyrazol-4-yl)phenyl)-N4-(5-methyl-1H-pyrazol-3-yl)pyrimidine-2,4-diamine] it was 549 nM; in that of `C/C(=N\OCCO)c1cc(C)c(Nc2ncc(Cl)c(Nc3cc(C)[nH]n3)n2)cc1C` [Compound 28, 1-(4-(5-chloro-4-(5-methyl-1H-pyrazol-3-ylamino)pyrimidin-2-ylamino)-2,5-dimethylphenyl)ethanone O-2-hydroxyethyloxime], 141 nM.
The compound `C/C(=N\O)c1cc(C)c(Nc2ncc(Cl)c(Nc3cc(C)[nH]n3)n2)cc1C` [Compound 29, 1-(4-(5-chloro-4-(5-methyl-1H-pyrazol-3-ylamino)pyrimidin-2-ylamino)-2,5-dimethylphenyl)ethanone oxime] registered a half-inhibitory concentration (IC50) of 51 nM. This IC50 is about 2.8-fold lower than that of the compound before.
To `Cc1cc(Nc2nc(Nc3cc(C)c(C(=O)N(C)C)cc3C)ncc2Cl)n[nH]1` [Compound 30, 4-(5-chloro-4-(5-methyl-1H-pyrazol-3-ylamino)pyrimidin-2-ylamino)-N,N,2,5-tetramethylbenzamide] belongs 539 nM; to `Cc1cc(Nc2nc(Nc3cc(C)c(C(=O)NCCN(C)C)cc3C)ncc2Cl)n[nH]1` [Compound 31, 4-(5-chloro-4-(5-methyl-1H-pyrazol-3-ylamino)pyrimidin-2-ylamino)-N-(2-(dimethylamino)ethyl)-2,5-dimethylbenzamide], 659 nM.
